What all share (experiment): growth of human tumour cells (NCI), 48 h
The test system of assay [1] is HCT-15 colon.
In assay [2] the test system is HT29 colon.
Assay [3] relates to IGROV1 ovarian.
Assay [4] has as its system MOLT-4 leukemia.
Assay [5] concerns NCI-H460 lung.
The test system of assay [6] is NCI-H522 lung.
Assay [7] has as its system NCI/ADR-RES ovarian.
The subject of assay [8] is RPMI-8226 leukemia.
Assay [9] relates to U251 CNS.
Assay [10] has as its system UACC-257 melanoma.

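These data come from cells grown in 96-well plates and exposed to compound for 48 hours at five concentrations. Abbreviation: GI50, concentration required for 50% inhibition of growth. TGI is the concentration that stops growth completely.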 Where only a bound is given, the exact number is not on record here.

As to `O=C(CCSc1ccnc2c(C(F)(F)F)cccc12)N/N=C/c1cc(Cl)c(Cl)cc1Cl`, the GI50 in assay [1] is 20 µM; in [2] it was 17.8 µM; in assay [3] it was 18.8 µM; in [4], 32.2 µM; in [5], 25.4 µM; in [6], 31.6 µM. For the same compound, the GI50 in [7] is 23 µM; in [8], 19 µM; in assay [9], 18.4 µM; in [10], 83.5 µM. For the same compound, the TGI in assay [1] is 36.5 µM; in [2], 33.9 µM; in assay [3] it was 40.7 µM; in assay [4], 98.8 µM; in [5], 54.5 µM; in [6], more than 100 µM. In addition, the TGI in assay [7] was 49.7 µM; in assay [8], 52.7 µM; in assay [9] it was 32.4 µM; in [10], more than 100 µM.
`Nc1cc(S(N)(=O)=O)ccc1SSc1ccc(S(N)(=O)=O)cc1N`: the TGI in assay [1], in [2], in assay [3], in assay [4], in assay [5] and in assay [6] was more than 100 µM in each case. Moreover, the TGI in [7], in assay [8], in [9] and in assay [10] was more than 100 µM each time.
As to `O=C(COc1cccc(/C=C2\Oc3ccc4ccccc4c3C2=O)c1)c1ccc(Cl)cc1`, the GI50 in assay [1] was 33 µM; in [2] it was more than 100 µM; in [3] it was 0.246 µM; in assay [4] it was 3.13 µM; in assay [5], more than 100 µM; in assay [6] it was 6.3 µM. Also, the GI50 in [7] was more than 100 µM; in [8] it was 1.66 µM; in assay [9], 27.2 µM; in assay [10], more than 100 µM. Besides, the TGI in [1] is more than 100 µM; in assay [2] it was more than 100 µM; in [3], 9.14 µM; in [4], 11.1 µM; in assay [5] it was more than 100 µM; in assay [6] it was 23.2 µM. In addition, the TGI was more than 100 µM in assay [7], 6.62 µM in assay [8], more than 100 µM in [9] and more than 100 µM in [10].
For the compound `C[C@@H](COCCC(=O)N1CCN(c2ncc(C(F)(F)F)cn2)CC1)Nc1cn[nH]c(=O)c1C(F)(F)F`, the GI50 in assay [1] is more than 100 µM; in assay [2], more than 100 µM; in [3], 42.2 µM; in assay [4], 22.9 µM; in assay [5], 18.6 µM; in assay [6], 96.9 µM. The GI50 in assay [7] is more than 90.5 µM; in assay [8], 31.8 µM; in assay [9] it was 29.3 µM; in assay [10] it was more than 94.4 µM. Also, the TGI in [1], in assay [2], in assay [3], in assay [4], in assay [5] and in [6] was more than 100 µM in each case. Also, the TGI in assay [7], in [8], in assay [9] and in assay [10] was more than 100 µM in each case.
Take `COc1cccc(CCC(=O)c2cc3c(N)c(C(=O)Nc4cccc(Cl)c4C)sc3nc2C)c1`: the GI50 in assay [1] was 0.433 µM; in assay [2], 0.338 µM; in assay [3], 0.628 µM; in assay [4], 0.77 µM; in [5], 0.376 µM; in [6], 0.368 µM. Also, the GI50 was 0.388 µM in assay [7], 0.819 µM in assay [8], 0.445 µM in assay [9] and 4.25 µM in assay [10]. Besides, the TGI in assay [1] was more than 100 µM; in [3] it was more than 100 µM; in [4], more than 100 µM; in assay [5], more than 75.2 µM; in [7] it was 10.4 µM; in assay [8], more than 100 µM. The TGI in assay [9] and in assay [10] was more than 100 µM in each case.
Turning to `FC(F)(F)c1cccc2c(SCCc3n[nH]c(=S)o3)ccnc12`, the GI50 was 66.2 µM in assay [1]; 64.2 µM in assay [2]; 23.4 µM in assay [3]; 31.2 µM in [4]; 67.4 µM in [5]; 22.6 µM in assay [6]. In addition, the GI50 in [7] was 38 µM; in assay [8] it was 30.3 µM; in assay [9] it was 53.3 µM; in assay [10], 33.3 µM. In addition, the TGI was more than 100 µM in assay [1]; more than 100 µM in assay [2]; more than 100 µM in [3]; more than 100 µM in [4]; more than 100 µM in assay [5]; 90 µM in assay [6]. In addition, the TGI is more than 100 µM in [7], more than 100 µM in [8], more than 100 µM in assay [9] and 89 µM in assay [10].
For the compound `O=C1c2ccccc2-c2c1c1ccc([N+](=O)[O-])cc1c(=O)n2CCCNCCO`, the GI50 is 0.276 µM in assay [1]; 0.053 µM in [2]; 0.515 µM in assay [3]; 0.0374 µM in assay [4]; 0.025 µM in [5]; 0.154 µM in [6]. The GI50 in assay [7] was 0.65 µM; in assay [8] it was 0.0359 µM; in assay [9], 0.0778 µM; in assay [10], 3.37 µM. The TGI came to 1.69 µM in [1]; 0.82 µM in [2]; 2.45 µM in assay [3]; 1.4 µM in [4]; 0.343 µM in [5]; 1.91 µM in [6]. For the same compound, the TGI in assay [7] was 3.19 µM; in assay [8], 0.239 µM; in [9] it was 1.43 µM; in [10], 9.39 µM.
For the compound `O=C(CNc1ccc2c(=S)c3ccccc3[nH]c2c1)Nc1ccccc1-c1ccccc1NC(=O)CNc1ccc2c(=S)c3ccccc3[nH]c2c1`, the TGI was determined as 49.5 µM in assay [1]; 48.4 µM in assay [2]; 61 µM in [3]; 46.7 µM in assay [4]; 36.9 µM in assay [5]; 24.1 µM in assay [6]. The TGI is more than 63 µM in [7], 49.9 µM in assay [8], 42.3 µM in assay [9] and 45.3 µM in assay [10].
Regarding `Nc1nccc2c1ncn2C1OC(CO)C(O)C1O` (stereo unspecified), the GI50 is 75.8 µM in assay [1]; more than 100 µM in [2]; 44.7 µM in assay [3]; more than 100 µM in assay [4]; 73.8 µM in assay [5]; more than 100 µM in assay [6]. Also, the GI50 in [7], in assay [8], in assay [9] and in assay [10] was more than 100 µM each time. Besides, the TGI in [1], in [2], in [3], in assay [4], in [5] and in [6] was more than 100 µM in each case. Besides, the TGI in [7], in [8], in assay [9] and in assay [10] was more than 100 µM throughout.
For the compound `NCCCN1CCN(CCCNc2nc3ccccc3c3[nH]c4ccccc4c23)CC1`, the GI50 in [1] was 0.436 µM; in assay [2], 0.212 µM; in assay [3], 0.638 µM; in assay [4], 0.155 µM; in assay [5], 0.32 µM; in assay [6], 0.242 µM. In addition, the GI50 in [7] is 3.1 µM; in [8], 0.241 µM; in [9], 0.373 µM; in assay [10] it was 2.51 µM. Besides, the TGI was 7.83 µM in [1]; 1.99 µM in assay [2]; 4.38 µM in assay [3]; 4.02 µM in [4]; 1.42 µM in [5]; 1.31 µM in [6]. Moreover, the TGI in assay [7] was found to be 22 µM; in assay [8] it was 0.817 µM; in assay [9], 4.54 µM; in [10] it was 5.72 µM.
Regarding `Cc1ccc2nc(-c3ccc(N)c4ccccc34)[nH]c2c1`, the GI50 is less than 0.0425 µM in assay [1]; 0.361 µM in assay [2]; 0.424 µM in [3]; 1.36 µM in assay [4]; 3.97 µM in assay [5]; 0.0958 µM in assay [6]. In addition, the GI50 in [7] was 0.0835 µM; in assay [8], 0.0298 µM; in [9], 0.0619 µM; in [10] it was 9.5 µM. For the same compound, the TGI is 13.4 µM in [1]; more than 42.4 µM in assay [3]; 17.3 µM in [4]; 1.3 µM in assay [6]; 3.53 µM in assay [7]; 0.934 µM in assay [8]. The TGI stood at 22.5 µM in assay [9] and 34.5 µM in assay [10].
Turning to `OCC(CCc1c[nH]c2ccccc12)c1c[nH]c2ccccc12` (stereo unspecified), the TGI in assay [1] came to 32.2 µM; in [2], 30.7 µM; in assay [3], 27.5 µM; in [4], 52.1 µM; in [5], 28 µM; in [6] it was 29.4 µM. In addition, the TGI in assay [7] worked out at 44.1 µM; in assay [8], 73.5 µM; in assay [9] it was 30.4 µM; in assay [10], 24.7 µM.

The values are drawn from PubChem BioAssay (NCI).
